Reference: PMC8910697, “Development of VPC-70619, a Small-Molecule N-Myc Inhibitor as a Potential Therapy for Neuroendocrine Prostate Cancer” (International Journal of Molecular Sciences, 2022)

Assays:
Type in all cases: cell-based
[1] = tested on: N-Myc-Max transcription activity (LNCaP-NMYC cells); assay: Myc transcription assay (Cignal Myc reporter, luciferase) in LNCaP-NMYC cells; details: LNCaP-NMYC; for transcription inhibition activity (in words): screened at 10 µM and 5 µM
Protocol: To determine the optimal substitutions on the free phenyl ring, we used the active scaffold for a second substructure search against the ZINC15 database to identify a set of 181 analogues for further validation (VPC-70617 to -70799, presented in Supplementary Table S1). Compounds were tested for their inhibition of a N-Myc-Max luciferase transcription activity assay at 5 and 10 µM Figure 2a. Herein, we inspected all the proposed substitutions on the scaffold to discern the features required to construct a possible SAR model for inhibitors targeting N-Myc-Max/DBD complex (Figure 2b).
LNCaP-NMYC cells were transfected using TransIT-2020 transfection reagents per the manufacturer’s protocol. Cells were plated at a density of 10,000 cells per well of a 96-well plate. Following 24 h treatment with 5 µM or 10 µM of the compounds, the Myc reporter activity was measured using the Cignal Myc Reporter Assay Kit from Qiagen (#336841) (Hilden, Germany) per the manufacturer’s instructions.

IMR32 cells = assay: Cell viability (CellTiter-Glo), IMR32; details: Homo sapiens, IMR-32
Protocol: (§1) The 54 compounds were tested at 10 µM for their inhibition of the IMR32 human neuroblastoma cell line, in which the MYCN gene is amplified and actively expressed (Table 3). HO15.19 cell line (Myc-negative) was used in parallel as a compound specificity control.
(§2) Viability of N-Myc positive (IMR32and NCI-H660) and negative (HO15.19) cells were determined using the CellTiter-Glo Luminescent Cell Viability Assay (Promega cat. G7570) (Madison, WI, USA). Cells were seeded into a 96-well white plate with a clear bottom: 10,000 cells per well for the IMR32 cells cultured in EMEM supplemented with 10% FBS, 2000 HO15.19 cells per well in Eagle’s minimum essential medium (EMEM) supplemented with 10% FBS, and 2000 cells per well for the NCI-H660 neuroendocrine cells cultured in RPMI supplemented 5% FBS, 1% Insulin-Transferrin-Selenium (Thermo Fisher, 41400-045), 10nM b-estradiol (Sigma, E8875), 10nM hydrocortisone (Sigma H0888) and 1% matrigel. Following 24 h incubation, the cells were treated with serial dilutions of the derivatives along with the respective parental compound starting at 25 μM for 72 h. Cell Titer Glo was added to each well at a ratio of 1:1 and incubated on a shaker at RT for 2 min. Luminescence and IC50 was measured with the TECAN InfiniteM200 plate reader (Männedorf, Switzerland).

HO15.19 cells = assay: Cell viability counter-screen (CellTiter-Glo), Myc-negative HO15.19; details: Rattus norvegicus, HO15.19, 10 µM; Myc-negative specificity control
Protocol: as §1, §2

Compound | transcription inhibition activity (in words) [1] | inhibition at 10 µM (IMR32 cells) [%] | inhibition at 10 µM (HO15.19 cells) [%] | transcription inhibition activity at 5 µM (in words) [1]
N#Cc1ccc(NNC(=O)c2ccc(Cl)c(F)c2)c(C(F)(F)F)c1 [compound 70621] | good inhibition at both concentrations tested | 98.8 | 68.6 | –
N#Cc1ccc(NNC(=O)c2ccc(Cl)c(Br)c2)c(C(F)(F)F)c1 [compound 70622] | good inhibition at both concentrations tested | 99.4 | 36.4 | –
N#Cc1ccc(NNC(=O)c2ccc(Cl)cc2O)c(C(F)(F)F)c1 [compound 70633] | activity was maintained | 93.6 | 77 | –
N#Cc1ccc(NNC(=O)c2ccc(Br)c(Cl)c2)c(C(F)(F)F)c1 [compound 70635] | strong increase in inhibition activity | 7.5 | 11.8 | –
N#Cc1ccc(NNC(=O)c2cc(F)cc(F)c2)c(C(F)(F)F)c1 [compound 70639] | better inhibition activity | 60.2 | 66.1 | –
N#Cc1ccc(NNC(=O)c2cc(Cl)ccc2O)c(C(F)(F)F)c1 [compound 70640] | better inhibition activity | 93.5 | 76.7 | –
N#Cc1ccc(NNC(=O)c2cc(F)cc(Cl)c2)c(C(F)(F)F)c1 [compound 70644] | better inhibition activity | 88.3 | 69.5 | –
N#Cc1ccc(NNC(=O)c2ccc(F)c(C(F)(F)F)c2)c(C(F)(F)F)c1 [compound 70647] | strong increase in inhibition activity | 88.6 | 70.9 | –
N#Cc1ccc(NNC(=O)c2cc(Cl)cc(Br)c2)c(C(F)(F)F)c1 [compound 70650] | very strong transcription inhibition | 92.1 | 80.2 | –
N#Cc1ccc(NNC(=O)c2cc(Cl)cc(Cl)c2)c(C(F)(F)F)c1 [compound 70652] | very strong transcription inhibition | 92.5 | 80.7 | –
N#Cc1ccc(NNC(=O)c2ccc(SC(F)(F)F)cc2)c(C(F)(F)F)c1 [compound 70658] | active | 46.9 | 57.2 | –
N#Cc1ccc(NNC(=O)c2cc(F)c(F)cc2Cl)c(C(F)(F)F)c1 [compound 70659] | strong increase in inhibition activity | 31 | 31.5 | –
N#Cc1ccc(NNC(=O)c2ccc(Cl)c(C#N)c2)c(C(F)(F)F)c1 [compound 70662] | – | 11 | 9.9 | recovered the activity
N#Cc1ccc(NNC(=O)c2ccc([N+](=O)[O-])cc2)c(C(F)(F)F)c1 [compound 70663] | maintained good transcription inhibition activity | 28.9 | 7.9 | –
N#Cc1cccc(C(=O)NNc2ccc(C#N)cc2C(F)(F)F)c1 [compound 70672] | – | 18 | 8.1 | –
Cc1cc(Cl)cc(C(=O)NNc2ccc(C#N)cc2C(F)(F)F)c1 [compound 70675] | better inhibition activity | 65.4 | 65.9 | –
Cc1cc(C(=O)NNc2ccc(C#N)cc2C(F)(F)F)cc(C)c1F [compound 70679] | strong increase in inhibition activity | 1.1 | 7.3 | –
N#Cc1ccc(NNC(=O)c2ccc(F)c(Cl)c2)c(C(F)(F)F)c1 [compound 70680] | strong increase in inhibition activity | 52.9 | 64 | –
N#Cc1ccc(NNC(=O)c2ccc(SC(F)F)cc2)c(C(F)(F)F)c1 [compound 70682] | – | 11 | 22.9 | –

Compound | transcription inhibition activity (in words) [1] | inhibition at 10 µM (IMR32 cells) [%] | inhibition at 10 µM (HO15.19 cells) [%] | transcription inhibition activity at 5 µM (in words) [1]
COc1cc(C(=O)NNc2ccc(C#N)cc2C(F)(F)F)ccc1Cl [compound 70685] | – | 24.7 | 15.2 | recovered the activity
N#Cc1ccc(NNC(=O)c2cc(F)c(F)c(F)c2)c(C(F)(F)F)c1 [compound 70686] | strong increase in inhibition activity | 82.2 | 75.8 | –
N#Cc1ccc(NNC(=O)c2ccc(C(F)(F)F)c(F)c2)c(C(F)(F)F)c1 [compound 70693] | strong increase in inhibition activity | 22.4 | 0.2 | –
N#Cc1ccc(NNC(=O)c2cc(Cl)c(N)c(Cl)c2)c(C(F)(F)F)c1 [compound 70695] | better inhibition activity | 77.1 | 41.2 | –
N#Cc1ccc(NNC(=O)c2ccc(F)c(C#N)c2)c(C(F)(F)F)c1 [compound 70696] | strong increase in inhibition activity | 15.1 | 13.2 | –
N#Cc1ccc(Cl)c(C(=O)NNc2ccc(C#N)cc2C(F)(F)F)c1 [compound 70698] | high transcription inhibition activity | 35.4 | 27.3 | –
COc1cc(Cl)cc(C(=O)NNc2ccc(C#N)cc2C(F)(F)F)c1 [compound 70700] | better inhibition activity | 60.5 | 42 | –
N#Cc1ccc(NNC(=O)c2cccc(I)c2)c(C(F)(F)F)c1 [compound 70703] | better inhibition activity | 18.5 | 13.5 | –
N#Cc1ccc(NNC(=O)c2ccc(C(F)(F)F)cc2Cl)c(C(F)(F)F)c1 [compound 70704] | strong increase in inhibition activity | 10.6 | 13.6 | –
N#Cc1ccc(NNC(=O)c2ccc(C(F)(F)F)c(Cl)c2)c(C(F)(F)F)c1 [compound 70705] | good inhibition at both concentrations tested | 60.7 | 61.8 | –
N#Cc1ccc(NNC(=O)c2ccc(Cl)cc2C(F)(F)F)c(C(F)(F)F)c1 [compound 70706] | activity was maintained | 54.3 | 65.6 | –
N#Cc1ccc(NNC(=O)c2ccc(F)c(F)c2F)c(C(F)(F)F)c1 [compound 70715] | strong increase in inhibition activity | 14.4 | 39.9 | –
N#Cc1ccc(NNC(=O)c2c(O)cc(Cl)cc2Cl)c(C(F)(F)F)c1 [compound 70719] | recovered the inhibition activity | 95 | 76.5 | –
N#Cc1ccc(NNC(=O)c2cc(Cl)cc(C(F)(F)F)c2)c(C(F)(F)F)c1 [compound 70722] | very strong transcription inhibition | 94.7 | 79.3 | –
N#Cc1ccc(NNC(=O)c2ccc(F)c(I)c2)c(C(F)(F)F)c1 [compound 70726] | strong increase in inhibition activity | 75.6 | 66.2 | –
N#Cc1ccc(NNC(=O)c2cc(F)c(Cl)cc2Cl)c(C(F)(F)F)c1 [compound 70730] | recovered the inhibition activity | 87.5 | 77.1 | –
CC(C)(c1ccc(C(=O)NNc2ccc(C#N)cc2C(F)(F)F)cc1)C(F)(F)F [compound 70733] | active | 57.4 | 57.8 | –
N#Cc1ccc(NNC(=O)c2ccc(F)c(Br)c2)c(C(F)(F)F)c1 [compound 70734] | strong increase in inhibition activity | 86.5 | 77.8 | –
N#Cc1ccc(NNC(=O)c2cc(F)cc(Br)c2)c(C(F)(F)F)c1 [compound 70739] | better inhibition activity | 87.2 | 75.8 | –
